# Results reported in US6503882B2, “Treatment of HIV” (Trustees of Tufts College, priority 1997, dated 2003).
# Tests used:
# [1] = tested on: PBMC from HIV-infected patients; experiment: Proliferation of PBMC from HIV-infected individuals in vitro, 3H thymidine incorporation; type: cell-based, human; details: for stimulation of proliferation (incorporation of 3H thymidine, cpm): very low doses, FIG. 1
# Description: Peripheral blood mononuclear cells (PBMC) were obtained by standard methods from HIV-infected individuals, and from uninfected individuals. Varying dosages of KBP or VBP were contacted with the PBMC in vitro, and stimulation of proliferation was measured by incorporation of ^3H thymidine (cpm).
# [2] = relatively low doses (10^−7M), FIG. 2
Structure (SMILES),"proliferation of PBMC of HIV-infected patients ([1]; higher doses (10^−4M), FIG. 2)","proliferation of PBMC of HIV-infected patients [1, 2]","stimulation of proliferation (incorporation of 3H thymidine, cpm) [1]","stimulation of PBMC of HIV-infected patients ([1]; concentrations of 10^−6, FIG. 2)",cytotoxicity (T-cells),cytotoxicity to T-cells (T-cells),toxicity observed in vitro (T-cells)
NCCCC[C@H](N)C(=O)N1CCC[C@H]1B(O)O [Lys-boroPro],did not have this effect,caused proliferation,stimulated proliferation,,,,
CC(C)[C@H](N)C(=O)N1CCC[C@H]1B(O)O [Val-boroPro],did not have this effect,caused proliferation,stimulated proliferation,there was stimulation,approximately 50%,highly cytotoxic,greater than 80%
